In test [1] the test system is EBF1-PDGFRB. Nature of the test: viability assay of transformed Ba/F3 cells. The settings on record: Ba/F3 cells with wild-type fusion; cell viability read-out. The format is cell-based, Homo sapiens.
For test [2], the system named is EBF1-PDGFRB. To be noted: Ba/F3 cells with mutant fusion; cell viability read-out; gatekeeper; stated gain.

Where two headings read alike, the source gives them in different places.

For `Cc1nc(Nc2ncc(C(=O)Nc3c(C)cccc3Cl)s2)cc(N2CCN(CCO)CC2)n1` [dasatinib], in the test with EBF1-PDGFRB [1], the IC50 is recorded as 5.26 nM.

For `Cc1ccc(C(=O)Nc2ccc(CN3CCN(C)CC3)c(C(F)(F)F)c2)cc1C#Cc1cnc2cccnn12` [ponatinib], the IC50 with EBF1-PDGFRB [2] was determined as 23.93 nM; in the test on EBF1-PDGFRB [1], 5.73 nM.

The values above are taken from PMC8327742 (Haematologica, 2021).
